Test results taken from patent US6362222B1, “Analgesic use of podophyllotoxin for treating pain conditions in female genital organs” (priority 1998, dated 2002).

Experiments:
[1] = Topical podophyllotoxin on sore vestibular (Bartholin's) glands in vulvodynia patients; assay type: in vivo, human
Text: In the treatment, the vagina is first washed with a 3% acetum solution. The vulva, especially Batrholin's glands are examined by means of colposcopy. A second object is a slightly uneven, netlike area located obliquely behind, at the sides of the outer mouth of the urethra. Sometimes small hyperemetic cavities, small vestibular glands are found in the vulvar region, which are not sore in a healthy person. In vulvodynia they are typically very tender to touch and red, ligulate and with embossed edges. In vulvodynia Bartholin's gland orifices are sometimes closed. These points often start bleeding at palpation.
In accordance with the invention, the sore glands are pencilled with podophyllotoxin. Any commonly used vaginal ointment is applied on the pencilled area. The treatment is repeated twice if necessary at an interval of about one month. The treatment is usually not effective at once, however, in the course of typically two weeks there is no more pain.
The gland orifices were pencilled with a 5% podophyllotoxin solution. The pain during intercourse disappeared at the end of a couple of weeks. After about two years the pain recurred. Podophyllotoxin was applied to the gland orifices anew. At the end of two months the lefthand, still tender gland orifice was pencilled once more.
The patient had undergone hysterectomy because of prolapse and extended cervix. However, the prolapse recurred (enterocele), and was resectioned from below. After the surgery the patient suffered from vaginal pain, which was stronger on the left side. There was no inflammation, the pain persisted. A gynecologist made repeated examinations, found nothing wrong and consulted a neurologist, who made the diagnosis inexplicable postoperative pain. […] Podophyllotoxin was applied twice at one month's interval and once more the following day.
(§1) The patient hade undergone hysterectomy, suffered from pain, a small muscular tumour and adhesions after endometriosis. The patient had suffered from incontinence for about a year. There had been no distinct inflammations. […] They were pencilled. Nevertheless, after about six months the patient returned to the clinic because of pain in the lower abdomen, the back and a sting in the urinary bladder. The sore vaginal peaks were pencilled with podophyllotoxin once more.
A total of 151 patients were treated over a period of two years, and among these 75% had typical vulvodynia symptoms and the remainder atypical other symptoms, such as disorders of the urinary tracts, vaginal dryness, itching and recurrent candidosis. However, intense tenderness to touch of the vestibular glands was typical for all of the patients.
All of the patients were treated in the same way: first the vagina was washed with a 3% solution of acetum, the sore glands were treated with podophyllotoxin and vaginal ointment was applied on this. 46 patients were treated only once and 6 patients were treated 10 times, the patients were treated 2.6 times on the average.

[2] = Topical podophyllotoxin on vaginal peaks in patients with post-hysterectomic pain; assay type: in vivo, human
Method: In accordance with the invention podophyllotoxin can also be used for intense tenderness to touch and palpation in the upper vaginal corners with post-hysterectomic pain, sometimes also with bleed in. After the rinse with acetum the vaginal corners are treated with podophyllotoxin, and vaginal ointment can be applied on the treated areas if necessary. The treatment can be repeated at least three times if necessary, at intervals of either one day or one month.
At the end of about three years the patient returned to the gynecologic outpatient clinic and complained about a strong continual pain in the lower part of the abdomen and a pushing feeling in the rectum. […] The vaginal peaks were treated locally with podophyllotoxin three times at two days' intervals. Especially the right corner was very tender to palpation. After the third treatment there was no more pain.
as §1
Post-hysterectomic pain was examined in 26 patients. The vagina was first washed with a 3% acetum solution and then the vaginal peaks were pencilled with podophyllotoxin. A vaginal ointment was used occasionally on the pencilled areas. The treatment was repeated 1 to 3 times at about one month's intervals.

COc1cc([C@@H]2c3cc4c(cc3[C@H](O)[C@H]3COC(=O)[C@H]23)OCO4)cc(OC)c1OC [podophyllotoxin]
pain during intercourse after treatment ([1]; Example 1, one patient, Bartholin's gland orifices pencilled with 5% podophyllotoxin solution, at the end of a couple of weeks): disappeared | pain after repeat treatment of recurrence ([1]; Example 1, recurrence after about two years, gland orifices pencilled anew, left orifice once more after two months, in the course of a couple of weeks): disappeared completely | symptoms after treatment ([1]; Example 2, one patient, postoperative vaginal pain, left Bartholin's gland and right side of urethra, applied twice at one month's interval and once more the following day): free of symptoms | pain in the glands after treatment ([1]; Example 3, one patient, sore glands in the introitus pencilled once, after one month): no pain in the glands | number of patients free of symptoms ([1]; Example 4, 151 patients treated, 2.6 times on average, about two weeks after the treatment): about one hundred | number of patients considered to have probably recovered ([1]; Example 4, 151 patients treated, follow-up maximum more than 5 years): 40 patients | immediate effect on pain ([1]; directly after treatment, before relief in the course of a couple of weeks): increases the pain | pain after treatment (general statement) ([1]; sore glands pencilled, repeated twice if necessary at about one month interval, in the course of typically two weeks): no more pain | pain at small red cavities of the front part of the vulva ([1]; vestibulitis type condition): relieved | pain after treatment of vaginal peaks ([2]; Example 2, same patient about three years later, vaginal peaks treated three times at two days' intervals, after the third treatment): no more pain | incontinence after treatment of vaginal peaks ([2]; Example 3, control one month after last pencilling of vaginal peaks): disappeared | patient's state at control after treatment of vaginal peaks ([2]; Example 3, sore vaginal peaks pencilled again about six months later, control one month later): completely recovered | number of patients remaining free of symptoms during the control period ([2]; Example 5, 26 patients, vaginal peaks pencilled 1 to 3 times at about one month's intervals, maximum control period 9 months): 17 patients | results of treatment (general statement) ([2]; upper vaginal corners treated, repeated at least three times if necessary): extremely good
